No end group written: not given here.
Assay: Efficacy test for calcium solubilizing effect in vivo (soluble calcium in small intestine contents, atomic absorption spectrometer)
Set-up: species or system Wister Rats
Details: for Calcium concentration in the small intestine, Lower part / Calcium concentration in the small intestine, Total / Calcium concentration in the small intestine, Upper part: measured one hour after feeding, mean ± standard deviation
Procedure: Efficacy test for calcium solubilizing effect In vivo
Forty Wister Rats weighing about 120 g on an average were supplied with a controlled diet consisting of 24 wt % of crude proteins, 5 wt % of crude fats, 60 wt % of starches, 5 wt % of crude fibers, 5 wt % of minerals and 1 wt % of vitamins for a week and then starved for 24 hours. The rats were divided into 4 groups, each group including 10 rats.
Rats of the first group were supplied with a controlled diet including 10 wt % of the beta-casein H for 1.5 hours.
Rats of the second group were supplied with a controlled diet including 10 wt % of a conventional beta-casein for 1.5 hours.
Rats of the third group were supplied with a controlled diet including 1 wt % of the CPP in accordance with the present invention for 1.5 hours.
Rats of the fourth group were supplied with a controlled diet including 1 wt % of the conventional CPP for 1.5 hours.
All rats were allowed to freely have the controlled diets as much as they can. One hour after the completion of the above feeding, all rats were anesthetized, and the small intestines were excised therefrom. The small intestines were washed with a saline solution and then divided into two parts, i.e, the upper part and the lower part.
Thereafter, the contents in the small intestine were isolated, homogenized and centrifugated. A calcium in the supernant was measured three times by an atomic absorption spectrometer (Perkin Elmer Co.).

[1] = CPP feed, 3rd Group (inventive CPP) over 4th Group (conventional CPP)
[2] = CPP feed, controlled diet including 1 wt % CPP for 1.5 hours
[3] = casein feed, controlled diet including 10 wt % casein for 1.5 hours

Molecule | Improvement (%) of calcium concentration, Lower part [1] [%] | Improvement (%) of calcium concentration, Total [1] [%] | Improvement (%) of calcium concentration, Upper part [1] [%] | Improvement (%) of calcium concentration, Total (CPP feed, 3rd Group (inventive CPP) over 4th Group (conventional CPP), listed as present CPP) [%] | Calcium concentration in the small intestine, Lower part [2] [ppm] | Calcium concentration in the small intestine, Total [2] [ppm] | Calcium concentration in the small intestine, Upper part [2] [ppm] | Calcium concentration in the small intestine, Total (CPP feed, controlled diet including 1 wt % CPP for 1.5 hours, listed as present CPP) [ppm] | Calcium concentration in the small intestine, Lower part [3] [ppm] | Calcium concentration in the small intestine, Total [3] [ppm] | Calcium concentration in the small intestine, Upper part [3] [ppm]
CPP in accordance with the present invention: casein phosphopeptide of SEQ. ID NO: 1, 28 amino acids, 25th Arg of the conventional CPP substituted by Cys (RELEELNVPGEIVESLSSSEESITCINK; also: phosphorylated, sites not given here) | 29.8 | 23.1 | 7.0 | 23 | 51.02 ± 3.1 | 68.20 ± 2.5 | 17.18 ± 1.9 | 68.20 | – | – | –
conventional beta-casein: conventional beta-casein fed to the second group as comparison (protein, UniProt P02666 16-224, looked up) Beta-casein: RELEELNVPGEIVESLSSSEESITRINKKIEKFQSEEQQQTEDELQDKIHPFAQTQSLVYPFPGPIPNSLPQNIPPLTQTPVVVPPFLQPEVMGVSKVKEAMAPKHKEMPFPKYPVEPFTESQSLTLTDVENLHLPLPLLQSWMHQPHQPLPPTVMFPPQSVLSLSQSKVLPVPQKAVPYPQRDMPIQAFLLYQEPVLGPVRGPFPIIV | – | – | – | – | – | – | – | – | 35.11 ± 2.3 | 50.60 ± 2.0 | 15.49 ± 1.7
